This note sets out measurements from paper PMC4624780 (PLoS ONE, 2015).

Assay [1] concerns 3A N-terminal (1–52) peptide dimer. Type of assay: biochemical, foot-and-mouth disease virus (FMDV).

Square brackets hold non-standard residues; d marks the D form. Peptide text beside a SMILES is read from it. Ahx = NCCCCCC(=O)O

Consider ELRPLIQQ [α2], for which, in assay [1], the “intensity of the N-ter dimer band, immunoblotting with polyclonal antibody 479” value is listed as “impaired in vitro dimer formation”.

With FFEGMVHDS [α1], the “intensity of the N-ter dimer band, immunoblotting with polyclonal antibody 479” value in assay [1] was “impaired in vitro dimer formation”.

For RRRRRRRXFFEGMVHDS [Peptide R7-α1], the “inhibition of viral production” value in the assay with FMDV C-S8c1 is reported as “dose dependent inhibition”.

Take `CC[C@H](C)[C@H](NC(=O)[C@H](CC(C)C)NC(=O)[C@@H]1CCCN1C(=O)[C@H](CCCNC(=N)N)NC(=O)[C@H](CC(C)C)NC(=O)[C@H](CCC(=O)O)NC(=O)CCCCCNC(=O)[C@H](CCCNC(=N)N)NC(=O)[C@H](CCCNC(=N)N)NC(=O)[C@H](CCCNC(=N)N)NC(=O)[C@H](CCCNC(=N)N)NC(=O)[C@H](CCCNC(=N)N)NC(=O)[C@H](CCCNC(=N)N)NC(=O)[C@@H](N)CCCNC(=N)N)C(=O)N[C@@H](CCC(N)=O)C(=O)N[C@@H](CCC(N)=O)C(N)=O` [Peptide R7-α2] (H-RRRRRRR[Ahx]ELRPLIQQ-NH2; N-terminus assumed): in the assay on FMDV C-S8c1, the “inhibition of viral production” value was “dose dependent inhibition” and the “reduction of viral yield at concentrations lower than 100 μM” value is listed as “significant reductions”. For the same molecule, in the assay with FMDV C-S8c1 (24 h, 100 μM), the “inhibition of viral production at 100 μM” value was “ca. 50%”.
